Measurements taken from paper PMC7316778 (Nature Communications, 2020).
Values joined by “and” are separate entries in the source; they are usually repeats but may differ in a detail not shown here. Equal values may be shown once. Read-outs that look alike come from different tables or passages of the source.

Legend:
CSNK1G2 (CK1 gamma 2) = CSNK1G2 (CK1 gamma 2) (Homo sapiens, UniProt P78368); experiment: SelectScreen kinase assay
Experimental: (§1) Selectivity profiling assays were performed by the Invitrogen SelectScreen™ Services. […] The concentration of ATP was selected to be equal to the KM, unless indicated otherwise.

PRKX = PRKX (Homo sapiens, UniProt P51817); experiment: SelectScreen kinase assay
Chain of PRKX (P51817 whole entry): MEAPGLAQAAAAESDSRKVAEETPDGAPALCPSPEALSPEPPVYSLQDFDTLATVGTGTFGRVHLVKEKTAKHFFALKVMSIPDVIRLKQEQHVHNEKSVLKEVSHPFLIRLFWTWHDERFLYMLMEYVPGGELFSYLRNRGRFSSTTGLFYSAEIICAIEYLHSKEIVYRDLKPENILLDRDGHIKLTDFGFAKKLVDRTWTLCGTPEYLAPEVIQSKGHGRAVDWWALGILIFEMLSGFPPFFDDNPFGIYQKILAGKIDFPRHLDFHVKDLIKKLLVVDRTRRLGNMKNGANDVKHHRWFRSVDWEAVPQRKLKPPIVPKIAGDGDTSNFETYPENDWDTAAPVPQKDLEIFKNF
Experimental: as §1

FES^S700C = FES^S700C (Homo sapiens, UniProt P07332, S700C); experiment: FES Y713 autophosphorylation immunoblot, transfected HEK293T cells; type: cell-based; parameters: expressed in transfected cells; host or cells: HEK293T (transient, PEI); settings: WEL028 100 nM
Chain of FES^S700C (P07332 whole entry S700C): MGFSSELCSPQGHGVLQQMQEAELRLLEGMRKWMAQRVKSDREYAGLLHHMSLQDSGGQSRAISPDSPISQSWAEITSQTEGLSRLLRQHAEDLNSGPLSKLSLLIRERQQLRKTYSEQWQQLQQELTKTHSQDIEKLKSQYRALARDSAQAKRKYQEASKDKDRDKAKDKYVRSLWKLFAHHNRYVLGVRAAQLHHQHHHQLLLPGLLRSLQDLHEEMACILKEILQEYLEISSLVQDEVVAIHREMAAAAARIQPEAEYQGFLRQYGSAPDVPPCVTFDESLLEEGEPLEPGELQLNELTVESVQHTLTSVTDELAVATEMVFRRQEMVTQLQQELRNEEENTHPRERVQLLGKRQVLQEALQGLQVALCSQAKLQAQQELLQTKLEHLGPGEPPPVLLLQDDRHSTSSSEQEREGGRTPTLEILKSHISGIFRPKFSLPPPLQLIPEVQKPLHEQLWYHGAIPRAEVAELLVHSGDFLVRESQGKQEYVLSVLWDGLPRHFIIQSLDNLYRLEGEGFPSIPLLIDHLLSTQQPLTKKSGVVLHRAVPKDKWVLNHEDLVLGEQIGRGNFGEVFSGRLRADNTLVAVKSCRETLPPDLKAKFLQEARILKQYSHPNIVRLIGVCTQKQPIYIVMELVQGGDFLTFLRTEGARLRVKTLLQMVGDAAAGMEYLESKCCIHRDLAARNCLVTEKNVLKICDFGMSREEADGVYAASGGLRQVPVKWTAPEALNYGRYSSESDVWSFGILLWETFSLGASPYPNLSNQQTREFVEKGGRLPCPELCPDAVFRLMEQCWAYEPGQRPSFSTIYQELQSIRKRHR
Experimental: Samples were resolved by SDS-PAGE as described above, but transferred to 0.2 μm polyvinylidene difluoride membranes by Trans-Blot Turbo™ Transfer system (Bio-Rad) directly after fluorescence scanning. Membranes were washed with TBS (50 mM Tris pH 7.5, 150 mM NaCl) and blocked with 5% milk in TBS-T (50 mM Tris pH 7.5, 150 mM NaCl, 0.05% Tween-20) for 1 h at rt.
Membranes were then incubated with primary antibody in 5% milk in TBS-T (FLAG, V5, β-actin; o/n at 4 °C) or washed three times with TBS-T, followed by incubation with primary antibody in 5% BSA in TBS-T (other antibodies, o/n at 4 °C). Membranes were washed three times with TBS-T, incubated with matching secondary antibody in 5% milk in TBS-T (1:5000, 1 h at rt) and then washed three times with TBS-T and once with TBS. Luminol development solution (10 mL of 1.4 mM luminol in 100 mM Tris pH 8.8 + 100 µL of 6.7 mM p-coumaric acid in DMSO + 3 µL of 30% (v/v) H2O2) or Clarity Max™ ECL Substrate (Bio-Rad) was added and chemiluminescence was detected on ChemiDoc™ MP System.

BMPR2 = target: T1, BMPR2 (Homo sapiens, UniProt Q13873); experiment: SelectScreen kinase assay
T1 sequence (Q13873 27-1038): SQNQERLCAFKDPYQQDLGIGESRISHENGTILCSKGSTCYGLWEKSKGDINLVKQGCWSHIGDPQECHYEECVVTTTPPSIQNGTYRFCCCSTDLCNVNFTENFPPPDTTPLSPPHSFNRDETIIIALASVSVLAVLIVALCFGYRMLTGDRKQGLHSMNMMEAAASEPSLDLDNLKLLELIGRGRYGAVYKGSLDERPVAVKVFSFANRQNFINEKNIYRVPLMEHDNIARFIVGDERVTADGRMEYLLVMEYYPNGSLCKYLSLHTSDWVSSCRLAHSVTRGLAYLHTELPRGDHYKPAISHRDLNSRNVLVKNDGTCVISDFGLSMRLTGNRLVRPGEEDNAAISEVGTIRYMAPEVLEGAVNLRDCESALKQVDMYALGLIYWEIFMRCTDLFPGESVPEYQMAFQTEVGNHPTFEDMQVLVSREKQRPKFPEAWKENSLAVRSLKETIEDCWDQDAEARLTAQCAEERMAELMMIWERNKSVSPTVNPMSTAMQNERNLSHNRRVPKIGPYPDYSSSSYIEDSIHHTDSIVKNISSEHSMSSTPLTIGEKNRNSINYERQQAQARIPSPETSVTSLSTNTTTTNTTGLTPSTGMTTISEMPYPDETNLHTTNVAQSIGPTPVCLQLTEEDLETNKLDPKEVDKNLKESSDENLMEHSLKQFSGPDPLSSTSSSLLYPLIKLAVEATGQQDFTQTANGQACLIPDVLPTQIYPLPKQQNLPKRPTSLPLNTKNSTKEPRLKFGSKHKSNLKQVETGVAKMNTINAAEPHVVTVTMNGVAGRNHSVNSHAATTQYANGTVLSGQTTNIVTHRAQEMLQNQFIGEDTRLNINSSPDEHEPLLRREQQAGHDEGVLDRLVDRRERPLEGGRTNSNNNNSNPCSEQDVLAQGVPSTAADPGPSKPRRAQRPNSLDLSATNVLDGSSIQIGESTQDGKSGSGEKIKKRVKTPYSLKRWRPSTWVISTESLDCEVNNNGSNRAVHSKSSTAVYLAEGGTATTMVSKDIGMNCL
Experimental: as §1

[1] = target: T2, endogenous FES^S700C in HL-60 cells (Homo sapiens, UniProt P07332, S700C); experiment: Gel-based target engagement during neutrophil differentiation; type: cell-based; settings: 100 nM; Supplementary Figure 12b; individual replicates; listed as WEL028
T2 construct: endogenous in cells; host or cells: HL-60 FES^S700C clone, differentiated to macrophages or neutrophils
T2 sequence (P07332 whole entry S700C): as the sequence (P07332 whole entry S700C) above

TEC = target: T3, TEC (Homo sapiens, UniProt P42680); experiment: SelectScreen kinase assay; settings: for Inhibition at 1 µM (%): LanthaScreen Binding
T3 sequence (P42680 1-631): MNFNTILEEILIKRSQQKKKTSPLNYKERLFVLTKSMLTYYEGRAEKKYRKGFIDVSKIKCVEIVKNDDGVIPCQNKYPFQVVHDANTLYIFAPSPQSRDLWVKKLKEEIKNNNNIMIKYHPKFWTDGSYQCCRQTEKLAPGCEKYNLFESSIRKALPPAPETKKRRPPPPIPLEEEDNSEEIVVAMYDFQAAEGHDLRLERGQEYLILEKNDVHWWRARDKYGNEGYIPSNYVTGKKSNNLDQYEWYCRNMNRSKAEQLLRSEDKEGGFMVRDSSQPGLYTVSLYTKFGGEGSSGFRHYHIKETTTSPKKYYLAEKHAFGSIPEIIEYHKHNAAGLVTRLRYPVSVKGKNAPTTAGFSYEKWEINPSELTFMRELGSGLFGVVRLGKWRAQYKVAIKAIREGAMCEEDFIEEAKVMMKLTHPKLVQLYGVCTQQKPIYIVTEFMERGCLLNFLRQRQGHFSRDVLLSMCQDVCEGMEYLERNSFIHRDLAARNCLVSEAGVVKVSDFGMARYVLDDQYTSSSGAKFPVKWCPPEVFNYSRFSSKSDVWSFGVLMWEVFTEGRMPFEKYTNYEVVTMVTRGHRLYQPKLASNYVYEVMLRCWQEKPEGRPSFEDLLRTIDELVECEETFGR
Experimental: as §1

CDC7/DBF4 = CDC7/DBF4 (Homo sapiens, UniProt O00311); experiment: SelectScreen kinase assay
Chain of CDC7/DBF4 (O00311 whole entry): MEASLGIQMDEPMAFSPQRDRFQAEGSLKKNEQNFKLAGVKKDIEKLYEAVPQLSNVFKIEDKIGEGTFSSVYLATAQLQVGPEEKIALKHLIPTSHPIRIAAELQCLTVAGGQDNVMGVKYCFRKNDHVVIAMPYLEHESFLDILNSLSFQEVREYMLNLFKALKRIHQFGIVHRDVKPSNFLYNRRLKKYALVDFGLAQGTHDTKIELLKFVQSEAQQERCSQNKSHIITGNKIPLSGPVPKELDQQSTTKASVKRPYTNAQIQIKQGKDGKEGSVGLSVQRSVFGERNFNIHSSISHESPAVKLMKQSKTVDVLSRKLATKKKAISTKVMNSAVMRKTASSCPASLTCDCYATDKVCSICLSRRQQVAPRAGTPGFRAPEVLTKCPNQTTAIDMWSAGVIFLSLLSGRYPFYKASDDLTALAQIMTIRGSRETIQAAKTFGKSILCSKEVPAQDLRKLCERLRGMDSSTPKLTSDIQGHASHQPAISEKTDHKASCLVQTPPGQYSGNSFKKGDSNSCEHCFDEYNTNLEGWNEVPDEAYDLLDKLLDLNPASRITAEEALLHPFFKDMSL
Chain of CDC7/DBF4 (Q9UBU7 whole entry partner): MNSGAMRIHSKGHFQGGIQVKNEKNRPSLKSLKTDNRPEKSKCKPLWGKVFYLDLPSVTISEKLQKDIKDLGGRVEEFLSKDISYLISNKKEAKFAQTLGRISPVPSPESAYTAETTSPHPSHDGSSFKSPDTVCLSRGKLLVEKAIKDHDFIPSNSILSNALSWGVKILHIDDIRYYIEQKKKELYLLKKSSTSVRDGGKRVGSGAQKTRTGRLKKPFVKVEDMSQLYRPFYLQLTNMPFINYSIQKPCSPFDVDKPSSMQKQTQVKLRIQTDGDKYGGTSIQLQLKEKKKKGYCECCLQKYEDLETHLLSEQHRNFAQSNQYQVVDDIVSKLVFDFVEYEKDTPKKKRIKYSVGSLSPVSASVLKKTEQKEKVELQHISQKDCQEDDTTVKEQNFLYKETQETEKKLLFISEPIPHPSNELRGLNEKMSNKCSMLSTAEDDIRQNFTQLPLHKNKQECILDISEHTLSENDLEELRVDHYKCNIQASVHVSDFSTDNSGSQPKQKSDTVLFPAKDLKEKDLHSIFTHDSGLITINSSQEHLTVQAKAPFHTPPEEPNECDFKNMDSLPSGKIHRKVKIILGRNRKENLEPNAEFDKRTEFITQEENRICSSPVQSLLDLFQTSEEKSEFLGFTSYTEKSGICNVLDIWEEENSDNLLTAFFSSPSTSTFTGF
Experimental: as §1

PEAK1 = PEAK1 (Homo sapiens, UniProt Q9H792); experiment: SelectScreen kinase assay
Chain of PEAK1 (Q9H792 whole entry): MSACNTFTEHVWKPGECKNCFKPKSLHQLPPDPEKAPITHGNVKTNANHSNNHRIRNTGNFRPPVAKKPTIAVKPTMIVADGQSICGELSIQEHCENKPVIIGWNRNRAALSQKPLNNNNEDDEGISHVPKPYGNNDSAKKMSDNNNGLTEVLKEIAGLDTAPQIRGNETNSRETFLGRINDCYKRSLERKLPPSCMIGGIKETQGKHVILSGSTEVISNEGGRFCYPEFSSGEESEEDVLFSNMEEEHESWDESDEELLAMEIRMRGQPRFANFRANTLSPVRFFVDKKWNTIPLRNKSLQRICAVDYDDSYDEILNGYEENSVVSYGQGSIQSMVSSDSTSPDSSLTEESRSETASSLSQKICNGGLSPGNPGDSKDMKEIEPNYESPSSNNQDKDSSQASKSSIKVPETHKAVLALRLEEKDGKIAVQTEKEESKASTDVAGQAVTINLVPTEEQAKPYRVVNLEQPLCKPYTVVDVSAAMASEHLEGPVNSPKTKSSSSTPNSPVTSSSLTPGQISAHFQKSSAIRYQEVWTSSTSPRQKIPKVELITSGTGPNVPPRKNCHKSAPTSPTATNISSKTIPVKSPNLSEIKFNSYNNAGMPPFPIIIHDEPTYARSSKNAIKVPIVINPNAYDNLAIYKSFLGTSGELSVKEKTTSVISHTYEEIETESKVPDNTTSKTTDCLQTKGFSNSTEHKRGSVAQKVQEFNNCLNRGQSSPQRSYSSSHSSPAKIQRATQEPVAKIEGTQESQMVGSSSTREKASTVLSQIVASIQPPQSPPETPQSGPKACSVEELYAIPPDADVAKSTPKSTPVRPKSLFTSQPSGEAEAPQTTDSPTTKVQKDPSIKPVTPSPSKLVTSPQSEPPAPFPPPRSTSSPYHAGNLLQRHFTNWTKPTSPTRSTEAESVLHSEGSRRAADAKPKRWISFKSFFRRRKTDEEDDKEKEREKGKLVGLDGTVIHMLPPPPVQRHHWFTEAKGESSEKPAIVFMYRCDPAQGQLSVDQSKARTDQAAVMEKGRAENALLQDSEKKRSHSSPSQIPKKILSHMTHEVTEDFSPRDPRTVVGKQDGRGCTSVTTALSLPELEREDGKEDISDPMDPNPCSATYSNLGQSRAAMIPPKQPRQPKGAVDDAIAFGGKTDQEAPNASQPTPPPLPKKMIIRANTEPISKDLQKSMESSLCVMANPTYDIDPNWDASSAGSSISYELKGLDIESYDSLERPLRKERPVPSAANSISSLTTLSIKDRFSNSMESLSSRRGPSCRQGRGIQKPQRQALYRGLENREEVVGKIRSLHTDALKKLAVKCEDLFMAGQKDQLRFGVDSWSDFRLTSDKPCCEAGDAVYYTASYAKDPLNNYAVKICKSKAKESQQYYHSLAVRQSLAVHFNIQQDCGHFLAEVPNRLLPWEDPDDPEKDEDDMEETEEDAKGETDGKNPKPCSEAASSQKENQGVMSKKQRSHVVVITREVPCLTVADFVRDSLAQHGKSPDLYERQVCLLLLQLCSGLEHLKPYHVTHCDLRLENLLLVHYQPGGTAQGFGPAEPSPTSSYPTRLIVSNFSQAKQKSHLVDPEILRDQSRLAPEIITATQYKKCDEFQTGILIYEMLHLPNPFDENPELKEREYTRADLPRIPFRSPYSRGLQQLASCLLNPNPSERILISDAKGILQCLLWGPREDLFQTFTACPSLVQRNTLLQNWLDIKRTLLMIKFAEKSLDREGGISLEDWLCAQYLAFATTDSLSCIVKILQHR
Experimental: as §1

[2] = 1 h, 1 μM WEL028, 1 h preincubation

Chain of CSNK1G2 (CK1 gamma 2) (P78368 whole entry): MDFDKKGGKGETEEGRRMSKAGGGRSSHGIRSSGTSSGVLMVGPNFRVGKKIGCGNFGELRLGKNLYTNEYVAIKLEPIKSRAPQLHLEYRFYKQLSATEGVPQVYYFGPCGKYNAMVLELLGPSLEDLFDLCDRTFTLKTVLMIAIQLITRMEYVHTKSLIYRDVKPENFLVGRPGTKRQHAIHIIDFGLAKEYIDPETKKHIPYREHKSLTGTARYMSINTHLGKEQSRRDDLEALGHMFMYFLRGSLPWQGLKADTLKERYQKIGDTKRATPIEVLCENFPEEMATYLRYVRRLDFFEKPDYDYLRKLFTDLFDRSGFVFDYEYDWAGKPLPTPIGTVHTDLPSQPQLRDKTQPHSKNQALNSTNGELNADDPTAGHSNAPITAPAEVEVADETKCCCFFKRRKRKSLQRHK

Compound: C#CCOc1ccc(Nc2ncc(Cl)c(Nc3ccccc3NC(=O)C=C)n2)c(OC)c1 [Compound 6]
- Inhibition (%) (CSNK1G2 (CK1 gamma 2); 1 μM WEL028, 1 h preincubation): 4%
- Inhibition at 1 µM (%) (CSNK1G2 (CK1 gamma 2); CSNK1G2 (CK1 gamma 2), 1 µM, ZLYTE, ATP Km app, listed as WEL028, 1 µM): 7% and 1%
- Inhibition at 1 µM (%) (PRKX; 1 µM, ZLYTE, ATP Km app, listed as WEL028, 1 µM): -6% and 0%
- inhibition at 1 µM (PRKX; [2]): -3%
- Relative FES labeling (%) (FES^S700C; Fig. 4i, anti-phospho-FES Y713 band intensity, replicates, normalized to vehicle): 6.91% and 5.589% and 0.4481%
- Autophosphorylation of Tyr713 (FES^S700C): fully abolished autophosphorylation
- Inhibition (%) (BMPR2; 1 μM WEL028, 1 h preincubation): 3%
- Inhibition at 1 µM (%) (BMPR2; BMPR2, 1 µM, LanthaScreen Binding, listed as WEL028, 1 µM): 2%
- inhibition at 1 µM (BMPR2; read-out: Inhibition at 1 µM (%), BMPR2, 1 µM, LanthaScreen Binding): 4%
- Relative FES labeling (%) [1]: 10.1064% and 13.5252% and 6.003%
- Inhibition at 1 µM (%) (TEC): 2%
- Inhibition at 1 µM (%) (TEC; listed as WEL028, 1 µM): 7%
- inhibition at 1 µM (TEC; [2]): 5%
- inhibition at 1 µM (CDC7/DBF4; [2]): 3%
- Inhibition at 1 µM (%) (CDC7/DBF4; CDC7/DBF4, 1 µM, LanthaScreen Binding, listed as WEL028, 1 µM): 6% and 1%
- inhibition at 1 µM (PEAK1; [2]): 7%
- Inhibition at 1 µM (%) (PEAK1; PEAK1, 1 µM, ZLYTE, ATP Km app, listed as WEL028, 1 µM): 8%
- inhibition at 1 µM (PEAK1; read-out: Inhibition at 1 µM (%), PEAK1, 1 µM, ZLYTE, ATP Km app): 6%
